Experimental data from ChEMBL document CHEMBL1134799, “4,1-Benzoxazepinone analogues of efavirenz (Sustiva) as HIV-1 reverse transcriptase inhibitors” (Bioorg Med Chem Lett, 2001).

What was measured:
[1] = Cmax was determined; format: ADME, organism-based; conditions: in vivo
[2] = target: T1, Human immunodeficiency virus type 1 reverse transcriptase (Human immunodeficiency virus 1, UniProt Q72547); experiment: Compound was evaluated for its ability to inhibit HIV-1 Reverse Transcriptase in an in vitro enzyme assay
[3] = Tmax was determined; format: ADME
[4] = tested on: Human immunodeficiency virus type 1 reverse transcriptase (Human immunodeficiency virus 1), Q72547 [K103N]
Description: Compound was evaluated for its ability to inhibit a virus containing the clinically relevant K103N mutation

[5] = Area under curve obtained at a dose of 10 mg/kg when administered orally to rhesus monkey; format: ADME, organism-based, Macaca mulatta; design: dose 10 mg/kg, route oral; conditions: in vivo, po
[6] = target: Human immunodeficiency virus type 1 reverse transcriptase (Human immunodeficiency virus 1) (UniProt Q72547)
Description: Compound was evaluated for its ability to inhibit the wild type RF strain of HIV-1

[7] = Total plasma concentration at 24 hr at a dose of 10 mg/kg when administered orally to rhesus monkey; format: ADME, organism-based, Macaca mulatta; design: dose 10 mg/kg, route oral; conditions: po, read-out: C24h
[8] = target: T1, Human immunodeficiency virus type 1 reverse transcriptase; experiment: Inhibition of HIV-1 Reverse Transcriptase in an in vitro enzyme assay

SMILES	Cmax [1]	IC50 [2]	Tmax [3]	IC90 [4]	AUC [5]	IC90 [6]	concentration at 24 h [7]	IC50 [8]
C[C@@H]1O[C@](C#CC2CC2)(C(F)(F)F)c2cc(Cl)ccc2NC1=O (relative stereo)	1670 nM	82 nM	6 h	29 nM	30 µM·h	2.2 nM	1140 nM	
O=C1COC(C#Cc2ccoc2)(C(F)(F)F)c2cc(Cl)ccc2N1 (centres undefined)		2510 nM				47.5 nM		
CCC1OC(/C=C/C2CC2)(C(F)(F)F)c2cc(F)ccc2NC1=O (centres undefined)		151 nM		70 nM		2.5 nM		
CCC1OC(C#CC2CC2)(C(F)(F)F)c2cc(Cl)ccc2NC1=O (centres undefined)				139 nM		8.4 nM		391 nM
CCC#CC1(C(F)(F)F)OCC(=O)Nc2ccc(Cl)cc21 (centres undefined)		964 nM		1760 nM		9.1 nM		
CCC1OC(/C=C/C2CC2)(C(F)(F)F)c2cc(Cl)ccc2NC1=O (centres undefined)		185 nM		13 nM		7.8 nM		
O=C1COC(C#Cc2ccccc2)(C(F)(F)F)c2cc(Cl)ccc2N1 (centres undefined)		3300 nM		4100 nM		24.3 nM		
CCCC1OC(C#CC2CC2)(C(F)(F)F)c2cc(Cl)ccc2NC1=O (centres undefined)		799 nM				17.2 nM		
CC[C@@H]1O[C@](C#CC2CC2)(C(F)(F)F)c2cc(F)ccc2NC1=O		171 nM		117 nM		5.3 nM		
CC1OC(C#CC2CC2)(C(F)(F)F)c2c(ccc(F)c2F)NC1=O (centres undefined)		193 nM		75 nM		5.8 nM		
CC1OC(/C=C/C2CC2)(C(F)(F)F)c2c(ccc(F)c2F)NC1=O (centres undefined)		173 nM		81 nM		5.2 nM		
C[C@H]1O[C@](C#CC2CC2)(C(F)(F)F)c2cc(Cl)ccc2NC1=O		249 nM		1130 nM		7 nM		
O=C1COC(C#CC2CC2)(C(F)(F)F)c2cc(Cl)ccc2N1 (centres undefined)		432 nM		1400 nM		9.1 nM		
O=C1Nc2ccc(Cl)cc2C(C#CC2CC2)(C(F)(F)F)OC1CC(F)(F)F (centres undefined)		235 nM				16.8 nM		
O=C1Nc2ccc(Cl)cc2[C@@](C#CC2CC2)(C(F)(F)F)N1		32 nM		10 nM		2 nM		
O=C1Nc2ccc(Cl)cc2[C@@](/C=C/C2CC2)(C(F)(F)F)N1		23 nM		27 nM		2.1 nM		
C[C@@H]1O[C@](C#CC2CC2)(C(F)(F)F)c2cc(F)ccc2NC1=O		95 nM		333 nM		5.2 nM		
CC1OC(/C=C/C2CC2)(C(F)(F)F)c2cc(Cl)ccc2NC1=O (centres undefined)	2360 nM	46 nM	11 h	35 nM	50.8 µM·h	2.5 nM	1400 nM	
O=C1COC(/C=C/C2CC2)(C(F)(F)F)c2cc(Cl)ccc2N1 (centres undefined)		108 nM		362 nM		3.9 nM		
CC[C@H]1O[C@](C#CC2CC2)(C(F)(F)F)c2cc(F)ccc2NC1=O		1140 nM				87.4 nM		
CC(C)C#CC1(C(F)(F)F)OCC(=O)Nc2ccc(Cl)cc21 (centres undefined)		423 nM		784 nM		9.7 nM		
CC(C)C1OC(C#CC2CC2)(C(F)(F)F)c2cc(Cl)ccc2NC1=O (centres undefined)		597 nM				20.7 nM		
C[C@H]1O[C@](C#CC2CC2)(C(F)(F)F)c2cc(F)ccc2NC1=O		1940 nM				189 nM		
CC1OC(/C=C/C2CC2)(C(F)(F)F)c2cc(F)ccc2NC1=O (centres undefined)		129 nM		118 nM		7.6 nM		
